Assay results reported in US9089576B2, “Medicament comprising a peptide extract of avocado, which is intended for the treatment and prevention of illnesses that are linked to an immune system deficiency or oxidative stress or skin ageing or dry skin” (LABORATOIRES EXPANSCIENCE, priority 2004, dated 2015).
Where “and” joins values, the source holds several entries; their conditions need not be identical. Equal entries are not always repeated. Where two headings read alike, the source gives them in different places. Marks after values point to notes of the source that are not given here.

Legend:
[1] = tested on: Jurkat cell line (human lymphoid cells); assay: Anti-radical activity: intracellular lipid peroxides after H2O2 (C11-fluorine probe, flow cytometry); format: cell-based; details: 100 μM BHA; 10 μM H2O2, 30 minutes
Procedure: The relative lipid peroxide content inside the cells was measured in the basal state and following hydrogen peroxide treatment (H2O2, radical species production stimulation).
This measurement was made using a specific fluorescent probe selected and quantified by means of flow cytometry. This technique offers the advantage of very high specificity by measuring the fluorescence of individual cells, on a large number of cells (10,000 cells analysed per sample).
The cells were prepared in phenol red-free DMEM medium [Merck] with 1.87 mg/ml sodium bicarbonate [Invitrogen] according to the following conditions: • cells treated with H2O2 with the C11-fluorine probe (to quantify lipid peroxides); • cells not treated with H2O2 with C11-fluorine probe.
The probe was incorporated in the cells and the cells were then washed and incubated in the presence or not (standard) of 0.05%, 0.1%, 0.2% and 1% DM avocado peptides or 100 μM BHA (Butylated hydroxyanisole) [Sigma] […]
In the presence of hydrogen peroxide, the C11-fluorine probe integrated in the membranes is oxidised and its fluorescence decreases. Therefore, a decrease in the fluorescence signal conveys an increase in the membrane lipid peroxide content (and conversely).
The between-group comparisons were conducted using the Student's test and the protection percentage (P) was calculated as follows:

oxidised proteins = assay: Oxidised proteins content in replication-aged fibroblast model (INCell Analyzer analysis); format: cell-based, human; details: P16 fibroblasts; 150 μM BHA; 72 hours
Procedure: The study was conducted on normal human dermal fibroblasts at passage 8 (P8, control conditions) and brought to senescence using two separate methods: • accelerated ageing by means of successive replications: fibroblasts at passage 16 (P16), • accelerated ageing by means of H2O2.
The fibroblasts were cultured in DMEM medium [Invitrogen] supplemented with 2 mM L-glutamine [Invitrogen] and 10% Fetal Calf Serum [FCS, Invitrogen].
After incubation, the cells were rinsed and fixed with methanol. The fluorescein-5-thiosemicarbazide probe (20 μM) [Invitrogen] was added for 30 minutes at ambient temperature and, in parallel, the cell nuclei were stained with Hoechst [Sigma]. The image acquisition was performed using the INCell Analyzer™ 1000 unit [GE Healthcare], with the ×20 lens.

[2] = tested on: Glycosaminoglycan (GAG) synthesis; assay: GAG synthesis by keratinocytes (35S-sulphate incorporation); format: cell-based, human; details: 72 hours
Procedure: (§1) Normal human epidermal keratinocytes (NHEK) were pre-cultured for 24 hours at 37° C., 5% CO2 in calcium-depleted (0.09 mM) SFM medium [Invitrogen] supplemented with 0.25 ng/ml EGF [Invitrogen], 25 μg/ml pituitary extract [Invitrogen] and 25 μg/ml gentamycin [Sigma].
(§2) Two identical runs were prepared to assay, on one hand, hyaluronic acid release/production and, on the other, […] incorporation in the GAG fraction. The group corresponding to the GAG assay was supplemented with ^35S-sulphate [Amersham] after 48 hours of culture (labelling for the last 24 hours).
At the end of the treatment, in the group corresponding to the GAG assay, the incorporated radioactivity was counted and thus the variation in GAG synthesis with respect to the analysed control.
(§3) The between-group comparisons were conducted by means of an analysis of variance using the Dunnett multiple comparison test.

[3] = tested on: Rat peritoneal mast cells; assay: Tryptase release by mast cells stimulated with calcium ionophore A23187; format: cell-based; details: Ca ionophore + 50 μM Quercetin
Procedure: (reference tryptase release inhibitory molecule).
The cells were then stimulated for 15 minutes by 0.5 μM calcium ionophore A23187 [Millipore] to induce the release of tryptase.
The reaction was stopped by means of centrifugation at 4° C. The tryptase was assayed in the pellets and in the supernatants by means of a commercial kit [Millipore] based on the spectrophotometric detection of the chromophore p-nitroaniline (pNA) after cleavage of the substrate tosyl-gly-pro-lys-pNA by tryptase.

hBD-2 = assay: Induction of hBD-2 in normal human keratinocytes (ELISA); format: cell-based; details: IL-1β 100 ng/ml, 24 hours
Procedure: Normal human keratinocytes are seeded in 96 well plates (about 20,000 cells/well), in the presence of a specific medium which is enriched in calcium (final concentration 1.3 mM), as formerly described in the publication “Human β-Defensin-2 production in Keratinocytes is regulated by Interleukin-1, Bacteria, and the State of Differentiation”, Alice Y. Liu et al., The Society for Investigative Dermatology, vol. 118, No 2, February 2002, pages 275-281.
After 24 hours incubation, the induction of hBD-2 is assessed with an ELISA technique using a specific antibody (goat polyclonal to human BD2; Abcam; ab9871).

Heme oxygenase 1 = assay: DNA array gene expression, Skinethic reconstructed epidermises: Heme oxygenase 1; format: cell-based; details: 1 μM retinoic acid
[4] = tested on: SPRL6A (epidermal differentiation complex protein like protein); assay: DNA array gene expression, Skinethic reconstructed epidermises: SPRL6A; format: cell-based; details: 1 μM retinoic acid
Desmosglein 1 = assay: DNA array gene expression, Skinethic reconstructed epidermises: Desmosglein 1; format: cell-based; details: 1 μM retinoic acid
Elafin = assay: DNA array gene expression, Skinethic reconstructed epidermises: Elafin; format: cell-based; details: 1 μM retinoic acid
[5] = tested on: Normal human dermal fibroblasts (NHDF); assay: NHDF proliferation (neutral red incorporation); format: cell-based; details: 1 μM retinoic acid; 48 hours; RPMI 1% FCS
Procedure: (§4) The cell proliferation was evaluated using a neutral red incorporation tests. This test is based on the ability of living cells to incorporate and fix neutral red, a supravital staining agent. Therefore, the staining activity intensity (optical density measurement of cell lysates) reflects the quantity of living cells.
(§5) Normal human epidermal keratinocytes (NHEK), supplied by Cambrex, were cultured in KGM2 culture medium [Cambrex]. Normal human dermal fibroblasts (NHDF), supplied by Cambrex, were cultured in RPMI 1640 medium with GlutaMAX I [Invitrogen] supplemented with 1% or 10% fetal calf serum [FCS, Invitrogen].
(§6) The cells were inoculated in 96-well plates in KGM2 medium for the NHEK and in RPMI medium with 1% FCS for the NHDF.
(§7) (positive reference) in KGM2 medium for the NHEK or in RPMI medium with 1% FCS for the NHDF.
An additional condition was conducted for the NHDF: treatment with complete medium (RPMI with 10% FCS: optimal conditions for NHDF proliferation).
(§8) At the end of treatment, the quantity of cells per well was evaluated by means of a neutral red incorporation test:
(§9) After 3 hours in contact with neutral red, the cells were rinsed and lysed and the optical density proportional to the quantity of living cells was read at 540 nm against the blank (well with no cells).

Thioredoxin = details: 1 μM retinoic acid
Procedure: The gene expression analysis conducted using standard simplified DNA arrays. These mini-chips were produced on a Nylon substrate, spotting specific cDNA of the markers of interest.
The analysis was conducted using proprietary optimised miniaturised technology, based on the use of messenger RNA and ^33P labelling:
At the end of each culture time, the epidermises were rinsed with a PBS solution. The total RNA in the epidermises was then extracted and purified using Tri-Reagent [Sigma] according to a standardised protocol. The quantity and quality of the RNA were then evaluated using an Agilent 2001 bioanalyser.
The mRNA from each culture was then reverse transcribed using oligodT and a deoxyribonucleotide triphosphate labelled with ^33P. Multiple cDNA ‘target’ labelled sequences were produced for each culture. These targets were then hybridised, under optimised conditions, with the excess ‘probe’ cDNA fixed on the membranes. After washing, the relative quantity of labelled target was detected by means of direct counting on PhosphorImager.
The membrane analysis was conducted using ImageQuant TL software [Image Analysis, Amersham Biosciences].

[6] = tested on: Normal human epidermal keratinocytes (NHEK); assay: NHEK proliferation (neutral red incorporation); format: cell-based; details: 1 μM retinoic acid; 48 hours
Procedure: as §4, §5, §6, §7, §8, §9

S100 A9 = assay: DNA array gene expression, Skinethic reconstructed epidermises: S100 A9; format: cell-based; details: 1 μM retinoic acid
S100 A7 = assay: DNA array gene expression, Skinethic reconstructed epidermises: S100 A7; format: cell-based; details: 1 μM retinoic acid
[7] = tested on: Lysyl oxidase like 2 (LOXL2); assay: DNA array gene expression, Skinethic reconstructed epidermises: LOXL2; format: cell-based; details: 1 μM retinoic acid
S100 A8 = assay: DNA array gene expression, Skinethic reconstructed epidermises: S100 A8; format: cell-based; details: 1 μM retinoic acid
NICE-1 protein = assay: DNA array gene expression, Skinethic reconstructed epidermises: NICE-1; format: cell-based; details: 1 μM retinoic acid
hyaluronic acid = assay: Hyaluronic acid synthesis/release by keratinocytes (ELISA); format: cell-based, human; details: 0.1 μM retinoic acid, 72 hours
Procedure: as §1, §2
In the group corresponding to the hyaluronic acid assay, at the end of treatment, the culture supernatants were sampled and the hyaluronic acid assayed using a specific modified ELISA test [Biogenic].
as §3

Collagen I = assay: Gene expression of Collagen I in fibroblasts (real-time RT-PCR); format: cell-based, human; details: 24 hours
Procedure: (§10) The cells were then incubated at 37° C., 5% CO2 for 24 hours for the collagen I and elastin study or 48 hours for the LOX and LOXL study.

Elastin = assay: Gene expression of Elastin in fibroblasts (real-time RT-PCR); format: cell-based, human; details: 24 hours
Procedure: as §10

MMP1 = assay: Gene expression of MMP1 in PMA-stimulated fibroblasts (real-time RT-PCR); format: cell-based, human; details: 1 mg/ml TGF b1 pre-treatment 16 hours, then 10 nM PMA 2 hours
Procedure: After 16 hours of incubation, the fibroblasts were stimulated for 2 hours with 10 nM PMA (Phorbol Myristate Acetate) [Sigma] in RPMI medium without FCS.
For the study of the expression of MMP1, the inhibition percentage was calculated as follows: […]

COc1ccc(O)c(C(C)(C)C)c1 [BHA, Butylated hydroxyanisole]
Protection % [1]: 50% | Relative intracellular quantity of lipid peroxides, % of “oxidised cell” standard [1]: 89** % | Oxidised proteins (cytoplasmic fluorescence intensity/number of cells) (oxidised proteins): 105 314* | Oxidised proteins, % vs “senescent cells” (P16) (oxidised proteins): −57%

[Ca+2] [Calcium, calcium]
GAG synthesis, 35-5 sulphate incorporation (cpm) ([2]; 1.5 mM calcium): 17753 ± 876 cpm | GAG synthesis, % vs control cells ([2]; 1.5 mM calcium): +59%

O=c1c(O)c(-c2ccc(O)c(O)c2)oc2cc(O)cc(O)c12 [Quercetin]
Tryptase [3]: 44 ± 2 mg/mL | tryptase release, Inhibition (% vs stimulated cells) [3]: −47%

IL-1β: interleukin-1β, positive induction checking for hBD-2
hBD-2 (OD), Average (hBD-2): 0.106 OD | hBD-2 (OD) (hBD-2; single replicates): 0.103 OD and 0.11 OD and 0.105 OD

CC1=C(/C=C/C(C)=C/C=C/C(C)=C/C(=O)O)C(C)(C)CCC1 [retinoic acid]
% variation with respect to reference: Heme oxygenase 1 (Heme oxygenase 1; 6 hours): −17% | % variation with respect to reference: Heme oxygenase 1 (Heme oxygenase 1; 24 hours): +108% | % variation with respect to reference: SPRL6A ([4]; 6 hours): −41% | % variation with respect to reference: SPRL6A ([4]; 24 hours): +202% | % variation with respect to reference: Desmosglein 1 (Desmosglein 1; 6 hours): −40% | % variation with respect to reference: Desmosglein 1 (Desmosglein 1; 24 hours): −95% | % variation with respect to reference: Elafin (Elafin; 6 hours): +13% | % variation with respect to reference: Elafin (Elafin; 24 hours): −22% | NHDF proliferation, % vs control cells [5]: +20% | NHDF proliferation, Neutral Red (OD 540) [5]: 0.1923 ± 0.00765 OD 540 | % variation with respect to reference: Thioredoxin (Thioredoxin; 6 hours): −26% | % variation with respect to reference: Thioredoxin (Thioredoxin; 24 hours): +126% | NHEK proliferation, % vs control cells [6]: +36% | NHEK proliferation, Neutral Red (OD 540) [6]: 0.6981 ± 0.1627 OD 540 | % variation with respect to reference: S100 A9 (S100 A9; 6 hours): +83% | % variation with respect to reference: S100 A9 (S100 A9; 24 hours): +552% | % variation with respect to reference: S100 A7 (S100 A7; 6 hours): +118% | % variation with respect to reference: S100 A7 (S100 A7; 24 hours): +3240% | % variation with respect to reference: Lysyl oxidase like 2 (LOXL2) ([7]; 6 hours): −16% | % variation with respect to reference: Lysyl oxidase like 2 (LOXL2) ([7]; 24 hours): −16% | % variation with respect to reference: S100 A8 (S100 A8; 6 hours): +34% | % variation with respect to reference: S100 A8 (S100 A8; 24 hours): +1347% | % variation with respect to reference: NICE-1 protein (NICE-1 protein; 6 hours): −3% | % variation with respect to reference: NICE-1 protein (NICE-1 protein; 24 hours): +217% | GAG synthesis, 35-5 sulphate incorporation (cpm) ([2]; 0.1 μM retinoic acid): 13217 ± 421 cpm | Hyaluronic acid synthesis/release, % vs control cells (hyaluronic acid): +146% | Hyaluronic acid synthesis/release, HA (hyaluronic acid; culture supernatant): 11500 ± 457 ng/mL

TGF b1: TGFβ1 [R&D Systems], positive control / reference
Gene expression of Collagen I, Relative quantity standardised with HPRT (Collagen I; 5 mg/ml TGF b1): 1.74* | increase in gene expression of type I collagen (Collagen I; TGFβ1 positive control): 74% | Gene expression of Elastin, Relative quantity standardised with HPRT (Elastin; 5 mg/ml TGF b1): 1.59 | increase in gene expression of elastin (Elastin; TGFβ1 positive control): 59% | Gene expression of MMP1, Inhibition (% vs stimulated cells) (MMP1): −66 $$ % | Gene expression of MMP1, Relative quantity standardised with YWHA2 (MMP1): 0.61 | Gene expression of MMP1, Inhibition (% vs stimulated cells) (MMP1; listed as TGFβ1): −66%
